Experimental data taken from paper PMC8830019, “A sensitive, accurate, and high-throughput gluco-oligosaccharide oxidase-based HRP colorimetric method for assaying lytic polysaccharide monooxygenase activity” (Biotechnology for Biofuels and Bioproducts, 2022).

Molecular target: T1, SsGOOX (recombinant gluco-oligosaccharide oxidase) (Sarocladium strictum, UniProt Q6PW77)
T1 construct: gene gluO; T. reesei cbh1 signal peptide at N-terminus, C-terminal 6xHis; codon-optimised synthetic gene, secreted by Trichoderma reesei QM9414
T1 sequence (Q6PW77 26-499): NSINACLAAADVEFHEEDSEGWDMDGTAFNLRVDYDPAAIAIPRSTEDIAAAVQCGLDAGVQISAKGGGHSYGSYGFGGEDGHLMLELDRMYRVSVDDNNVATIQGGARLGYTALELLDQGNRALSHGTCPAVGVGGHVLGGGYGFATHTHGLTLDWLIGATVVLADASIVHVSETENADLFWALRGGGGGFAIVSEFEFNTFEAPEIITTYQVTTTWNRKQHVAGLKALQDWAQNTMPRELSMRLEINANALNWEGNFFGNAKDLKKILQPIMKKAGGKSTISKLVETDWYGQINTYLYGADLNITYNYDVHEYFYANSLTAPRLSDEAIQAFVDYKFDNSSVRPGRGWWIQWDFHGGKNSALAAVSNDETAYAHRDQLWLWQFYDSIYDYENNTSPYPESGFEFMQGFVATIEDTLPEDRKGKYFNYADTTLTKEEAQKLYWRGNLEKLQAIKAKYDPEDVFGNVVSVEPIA
Test: HRP-coupled colorimetric H2O2 assay (4-AAP / DCHBS, A515), modified Hill's model with substrate inhibition
Format: biochemical
Details: pH 7.0 phosphate, room temperature (about 26 C), 10 nM enzyme, 0.02-5 mM cellobiose; Hill-type fit with substrate inhibition; substrate inhibition constant; second site

`OC[C@H]1O[C@@H](O[C@H]2[C@H](O)[C@@H](O)C(O)O[C@@H]2CO)[C@H](O)[C@@H](O)[C@@H]1O` (stereo partly shown) [cellobiose] was tested, and the Ki was 995 µM.
